For test [1], the target named is human TYK2 (JH2domain-pseudokinase) (Homo sapiens (Human), UniProt P29597). As to the kind of experiment: TYK2 JH2 Domain Binding Assay (KINOMEscan). Particulars: read-out: hTYK2_JH2_Binding (Kd). On the procedure: Binding constants for compounds of the present invention against the JH2 domain were determined by the following protocol for a KINOMEscan® assay (DiscoveRx). A fusion protein of a partial length construct of human TYK2 (JH2domain-pseudokinase) (amino acids G556 to D888 based on reference sequence NP_003322.3) and the DNA binding domain of NFkB was expressed in transiently transfected HEK293 cells. From these HEK 293 cells, extracts were prepared in M-PER extraction buffer (Pierce) in the presence of Protease Inhibitor Cocktail Complete (Roche) and Phosphatase Inhibitor Cocktail Set II (Merck) per manufacturers' instructions. The TYK2 (JH2domain-pseudokinase) fusion protein was labeled with a chimeric double-stranded DNA tag containing the NFkB binding site (5′-[…]-3′) fused to an amplicon for qPCR readout, which was added directly to the expression extract (the final concentration of DNA-tag in the binding reaction is 0.1 nM).
The liganded beads were blocked with excess biotin and washed with blocking buffer (SeaBlock (Pierce), 1% BSA, 0.05% Tween 20, 1 mM DTT) to remove unbound ligand and to reduce nonspecific binding.
Extracts were used directly in binding assays without any enzyme purification steps at a ≥10,000-fold overall stock dilution (final DNA-tagged enzyme concentration <0.1 nM). Extracts were loaded with DNA-tag and diluted into the binding reaction in a two step process. First extracts were diluted 1:100 in 1× binding buffer (PBS/0.05% Tween 20/10 mM DTT/0.1% BSA/2 μg/ml sonicated salmon sperm DNA) containing 10 nM DNA-tag. This dilution was allowed to equilibrate at room temperature for 15 minutes and then subsequently diluted 1:100 in 1× binding buffer. […] Kds were determined using an 11-point 3-fold compound dilution series with three DMSO control points. […] The compounds were then diluted directly into the assays such that the final concentration of DMSO was 0.9%. All reactions performed in polypropylene 384-well plates. Each was a final volume of 0.02 mL. Assays were incubated with shaking for 1 hour at room temperature. Then the beads were pelleted and washed with wash buffer (1×PBS, 0.05% Tween 20) to remove displaced kinase and test compound. […] The qPCR protocol consisted of a 10 minute hot start at 95° C., followed by 35 cycles of 95° C. for 15 seconds, 60° C. for 1 minute.
The compounds were then diluted directly into the assays such that the final concentration of DMSO was 0.9%. […] Kd measurements were performed in duplicate.
Binding constants (Kd values) were calculated with a standard dose-response curve using the Hill equation: […]
The Hill Slope was set to −1.

Test [2] concerns IL-12 induced STAT4 phophorylation mediated by Tyk2/JAK2 (heterodimeric complex). As to the kind of experiment: IL-12 Induced pSTAT4 in Human PBMC. In kind it is cell-based. Particulars: for IC50: 1.7 ng/mL IL-12, read-out: PBMC_IL-12-pSTAT4 (IC50); for inhibition at 0.05 µM: Homo sapiens, PBMC, 0.05 μM compound, 1.7 ng/mL IL-12, read-out: PBMC_IL-12-pSTAT4 (% Inhibition_Average_@0.05 uM) [%]. The protocol: Human PBMC are isolated from buffy coat and are stored frozen for assays as needed. […] 15 μl of compound or DMSO is added to the well at the desired concentrations and incubated at 1 hr at 37° C. 15 μl of stimulus (final concentration of 1.7 ng/mL IL-12) is added for 30 minutes prior to pSTAT4 and total STAT4 analysis using cell lysates prepared and analyzed by MSD reagents as per manufacturer protocol. The final DMSO concentration of compound in the assay is 0.1%.
The IL-12 Induced pSTAT4 assay evaluates the inhibition of IL-12 induced STAT4 phophorylation mediated by Tyk2/JAK2 (heterodimeric complex).

This passage reports Kd, IC50 and inhibition results from patent US11174264B2, “TYK2 inhibitors and uses thereof” (Nimbus Lakshmi, Inc., priority 2019, dated 2021).

Chain of human TYK2 (JH2domain-pseudokinase) (P29597 556-888): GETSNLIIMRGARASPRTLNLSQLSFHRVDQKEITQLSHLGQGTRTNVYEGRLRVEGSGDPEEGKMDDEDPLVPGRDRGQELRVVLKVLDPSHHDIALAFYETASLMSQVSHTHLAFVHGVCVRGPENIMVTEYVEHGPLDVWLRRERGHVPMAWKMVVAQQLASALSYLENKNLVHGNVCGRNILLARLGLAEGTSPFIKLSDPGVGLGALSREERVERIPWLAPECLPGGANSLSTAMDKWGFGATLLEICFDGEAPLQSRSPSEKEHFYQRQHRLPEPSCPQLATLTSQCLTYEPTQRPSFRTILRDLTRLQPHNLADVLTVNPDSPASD

For `CNc1cc(Nc2cccn([C@H]3CC[C@H](OC)CC3)c2=O)nn2c(C(=O)N[C@H]3CC[C@@H]3OC)cnc12` (racemic) [Compound I-21, N-(2-methoxycyclobutyl)-6-((1-((1r,4S)-4-methoxycyclohexyl)-2-oxo-1,2-dihydropyridin-3-yl)amino)-8-(methylamino)imidazo[1,2-b]pyridazine-3-carboxamide], in test [1], the Kd is below 200 pM. For the same molecule, in test [2], the IC50 is below 100000 pM and the inhibition at 0.05 µM is above 90%.

`CNc1cc(Nc2cccn([C@H]3[C@@H]4COC[C@@H]43)c2=O)nn2c(C(=O)N[C@H]3CC[C@@H]3OC)cnc12` (racemic) [Compound I-22, 6-((1-((1R,5S,6r)-3-oxabicyclo[3.1.0]hexan-6-yl)-2-oxo-1,2-dihydropyridin-3-yl)amino)-N-(2-methoxycyclobutyl)-8-(methylamino)imidazo[1,2-b]pyridazine-3-carboxamide]: the Kd in test [1] is below 200 pM. In test [2], the IC50 was below 100000 pM and the inhibition at 0.05 µM lay within 70 to 90%.

As to `CNc1cc(Nc2cccn([C@H]3C[C@H](OC)C3)c2=O)nn2c(C(=O)N[C@H]3CC[C@@H]3OC)cnc12` (racemic) [Compound I-23, N-((1S,2S)-2-methoxycyclobutyl)-6-((1-((1r,3S)-3-methoxycyclobutyl)-2-oxo-1,2-dihydropyridin-3-yl)amino)-8-(methylamino)imidazo[1,2-b]pyridazine-3-carboxamide], the dissociation constant Kd in test [1] was below 200 pM. For the same molecule, in test [2], the IC50 is below 100000 pM and the inhibition at 0.05 µM is 70 to 90%.

Consider `CNc1cc(Nc2cccn(-c3ncccc3F)c2=O)nn2c(C(=O)N[C@H]3CC[C@@H]3OC)cnc12` (stereo in doubt) [Compound I-17, 6-((3′-fluoro-2-oxo-2H-[1,2′-bipyridin]-3-yl)amino)-N-(2-methoxycyclobutyl)-8-(methylamino)imidazo[1,2-b]pyridazine-3-carboxamide], for which the Kd in test [1] was below 200 pM. Moreover, in test [2], the IC50 is below 100000 pM and the inhibition at 0.05 µM was 50 to 70%.

As to `CNc1cc(Nc2cccn(-c3ccccn3)c2=O)nn2c(C(=O)N[C@H]3CC[C@@H]3OC)cnc12` (stereo in doubt) [Compound I-18, N-(2-methoxycyclobutyl)-8-(methylamino)-6-((2-oxo-2H-[1,2′-bipyridin]-3-yl)amino)imidazo[1,2-b]pyridazine-3-carboxamide], the Kd in test [1] was below 200 pM. Moreover, in test [2], the IC50 was below 100000 pM and the inhibition at 0.05 µM lay in the range of 70 to 90%.

For the molecule `CNc1cc(Nc2cccn(-c3ccc(C)nc3)c2=O)nn2c(C(=O)N[C@H]3CC[C@@H]3OC)cnc12` (stereo in doubt) [Compound I-19, N-(2-methoxycyclobutyl)-6-((6′-methyl-2-oxo-2H-[1,3′-bipyridin]-3-yl)amino)-8-(methylamino)imidazo[1,2-b]pyridazine-3-carboxamide], the Kd in test [1] was below 200 pM. Also, in test [2], the half-inhibitory concentration (IC50) is below 100000 pM and the inhibition at 0.05 µM was 50 to 70%.

For the molecule `CNc1cc(-c2cn(C3CCOCC3)c3ncccc23)nn2c(C(=O)N[C@@H]3CC[C@@H]3O)cnc12` [Compound I-8, N-((1R,2S)-2-hydroxycyclobutyl)-8-(methylamino)-6-(1-(tetrahydro-2H-pyran-4-yl)-1H-pyrrolo[2,3-b]pyridin-3-yl)imidazo[1,2-b]pyridazine-3-carboxamide], in test [1], the Kd was below 200 pM.

Take `CNc1cc(-c2cn(C(C)C)c3ncccc23)nn2c(C(=O)N[C@@H]3COC[C@@H]3O)cnc12` [Compound I-13, N-((3R,4R)-4-hydroxytetrahydrofuran-3-yl)-6-(1-isopropyl-1H-pyrrolo[2,3-b]pyridin-3-yl)-8-(methylamino)imidazo[1,2-b]pyridazine-3-carboxamide]: the Kd in test [1] fell in the range of 200 to 1000 pM.
